According to patent publication US20240041042A1, “1-(PYRIDYL)-5-AZINYLPYRAZOLE DERIVATIVES, AND THEIR USE FOR CONTROL OF UNDESIRED PLANT GROWTH” (Bayer Aktiengesellschaft, priority 2020, published 2024):
Like-named read-outs stand apart in the source and are kept apart here.

Assays:
Type in all cases: in vivo
[1] = system: Echinochloa crus-galli (ECHCG); experiment: Pre-emergence herbicidal action against ECHCG; settings: dosage 320 g/ha
In short: (§1)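 Pre-emergence soil-surface spray, WP/EC formulation, 0.5% additive, 600 l/ha water, rates of 320 g/ha or lower. Greenhouse, ~3 wk. Visual score, % of untreated control (100% = plants dead, 0% = like control).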

[2] = system: Pharbitis purpurea (PHBPU); experiment: Pre-emergence herbicidal action against PHBPU; settings: dosage 320 g/ha
In short: as §1

[3] = system: Digitaria sanguinalis (DIGSA); experiment: Pre-emergence herbicidal action against DIGSA
In short: as §1

[4] = system: Echinochloa crus-galli (ECHCG); experiment: Post-emergence herbicidal action against ECHCG
In short: (§2)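 Post-emergence greenhouse spray, one-leaf stage, 600 l/ha water plus 0.5% additive; WP or EC formulations; application rates 320 g/ha or lower. Visual % damage vs untreated controls at ~3 weeks.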

[5] = system: Polygonum convolvulus (POLCO); experiment: Post-emergence herbicidal action against POLCO
In short: as §2

[6] = system: Viola tricolor (VIOTR); experiment: Post-emergence herbicidal action against VIOTR; settings: 320 g/ha
In short: as §2

[7] = system: Oryza sativa (ORYSA); settings: crop plant compatibility
In short: (§3)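 Percent effect on the crop was judged by eye against untreated controls, where 0% means like control and 100% means dead plants. Plants had been sprayed post-emergence at the one-leaf stage and then kept under optimum greenhouse conditions for about 3 weeks.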

[8] = system: Alopecurus myosuroides (ALOMY); experiment: Pre-emergence herbicidal action against ALOMY; settings: scored visually after about 3 weeks, 100% = plants have died
In short: as §1

[9] = system: Avena fatua (AVEFA); experiment: Pre-emergence herbicidal action against AVEFA; settings: 320 g/ha, visual scoring after about 3 weeks vs untreated controls
In short: as §1

[10] = system: Amaranthus retroflexus (AMARE); experiment: Pre-emergence herbicidal action against AMARE; settings: visual scoring after about 3 weeks vs untreated controls
In short: as §1

[11] = system: Avena fatua (AVEFA); experiment: Post-emergence herbicidal action against AVEFA; settings: 320 g/ha, visual rating about 3 weeks after treatment
In short: as §2

[12] = system: Alopecurus myosuroides (ALOMY); experiment: Post-emergence herbicidal action against ALOMY; settings: visual rating about 3 weeks after treatment vs untreated controls (100% = plants have died, 0% = like control plants)
In short: as §2

[13] = system: Verconica persica (VERPE); experiment: Post-emergence herbicidal action against VERPE
In short: as §2

[14] = system: Pharbitis purpurea (PHBPU); experiment: Post-emergence herbicidal action against PHBPU
In short: as §2

[15] = system: Polygonum convolvulus (POLCO); experiment: Pre-emergence herbicidal action against POLCO; settings: dosage 320 g/ha
In short: as §1

[16] = system: Zea mays (ZEAMX); settings: pre-emergence, 80 g/ha, crop plant compatibility, in comparison to untreated controls
In short: (§4)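 Crop injury rated visually in percent against untreated plants roughly 3 weeks after treatment (0% no effect, 100% plants dead). Compounds, as WP or EC with 0.5% additive in 600 l/ha water, were applied to the covering soil right after sowing; greenhouse growth. Suffixes a, b, c denote different dosages.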

[17] = system: Oryza sativa (ORYSA); settings: pre-emergence, 80 g/ha, crop plant compatibility, in comparison to untreated controls
In short: as §4

[18] = system: Verconica persica (VERPE); experiment: Pre-emergence herbicidal action against VERPE; settings: dosage 320 g/ha
In short: as §1

[19] = system: Abutilon theophrasti (ABUTH); experiment: Post-emergence herbicidal action against ABUTH; settings: 320 g/ha, visual rating about 3 weeks after treatment vs untreated controls (100% = plants have died, 0% = like control plants)
In short: as §2

[20] = system: Setaria viridis (SETVI); experiment: Post-emergence herbicidal action against SETVI; settings: dosage 320 g/ha
In short: as §2

[21] = system: Digitaria sanguinalis (DIGSA); experiment: Post-emergence herbicidal action against DIGSA; settings: visual rating about 3 weeks after treatment
In short: as §2

[22] = system: Viola tricolor (VIOTR); experiment: Pre-emergence herbicidal action against VIOTR
In short: as §1

[23] = system: Lolium rigidum (LOLRI); experiment: Pre-emergence herbicidal action against LOLRI; settings: dosage 320 g/ha
In short: as §1

[24] = system: Zea mays (ZEAMX)
In short: as §3

[25] = system: Amaranthus retroflexus (AMARE); experiment: Post-emergence herbicidal action against AMARE; settings: 80 g/ha, visual rating about 3 weeks after treatment vs untreated controls (100% = plants have died, 0% = like control plants)
In short: as §2

[26] = system: Setaria viridis (SETVI); experiment: Pre-emergence herbicidal action against SETVI
In short: as §1

[27] = system: Matricaria inodora (MATIN); experiment: Pre-emergence herbicidal action against MATIN; settings: dosage 320 g/ha
In short: as §1

[28] = 80 g/ha, effect in comparison to untreated controls

Compound: COC(=O)COc1nn(-c2ncccc2C(F)(F)F)c(-c2cncc(F)c2)c1I [Example I-223]
- Pre-emergence action against ECHCG in % [1]: 80%
- Pre-emergence action against PHBPU in % [2]: 80%
- Pre-emergence action against DIGSA in % ([3]; dosage 320 g/ha): 80%
- Post-emergence action against ECHCG in % ([4]; dosage 80 g/ha): 80%
- Post-emergence action against ECHCG in % ([4]; dosage 320 g/ha): 90%
- Post-emergence action against POLCO in % ([5]; dosage 80 g/ha): 80%
- Post-emergence action against POLCO in % ([5]; dosage 320 g/ha): 80%
- Post-emergence action against VIOTR in % [6]: 80%
- Post-emergence action against ORYSA in % [7, 28]: 10%
- Post-emergence action against ORYSA in % ([7]; 320 g/ha, effect in comparison to untreated controls): 20%
- Pre-emergence action against ALOMY ([8]; 320 g/ha): 90%
- Pre-emergence action against AVEFA in % [9]: 100%
- Pre-emergence action against AMARE in % ([10]; 320 g/ha): 90%
- Post-emergence action against AVEFA in % [11]: 80%
- Post-emergence action against ALOMY in % ([12]; 320 g/ha): 80%
- Post-emergence action against VERPE in % ([13]; 320 g/ha, VERPE): 80%
- Post-emergence action against PHBPU in % ([14]; dosage 80 g/ha): 80%
- Post-emergence action against PHBPU in % ([14]; dosage 320 g/ha): 80%
- Pre-emergence action against POLCO in % [15]: 80%
- Pre-emergence action against ZEAMX in % [16]: 20%
- Pre-emergence action against ORYSA in % [17]: 10%
- Pre-emergence action against VERPE in % [18]: 80%
- Post-emergence action against ABUTH in % [19]: 80%
- Post-emergence action against SETVI in % [20]: 80%
- Post-emergence action against DIGSA in % ([21]; 80 g/ha): 80%
- Post-emergence action against DIGSA in % ([21]; 320 g/ha): 90%
- Pre-emergence action against VIOTR in % ([22]; 320 g/ha, Viola tricolor): 100%
- Pre-emergence action against VIOTR in % ([22]; dosage 80 g/ha): 90%

Compound: O=C(COc1nn(-c2ccccn2)c(-c2ccc(F)nc2)c1Br)OCC1CCOC1 (centres unmarked) [Example I-90]
- Pre-emergence action against ECHCG in % [1]: 100%
- Pre-emergence action against LOLRI in % [23]: 100%
- Pre-emergence action against PHBPU in % [2]: 90%
- Pre-emergence action against DIGSA in % ([3]; 80 g/ha, visual scoring after about 3 weeks vs untreated controls): 100%
- Pre-emergence action against DIGSA in % ([3]; dosage 320 g/ha): 100%
- Post-emergence action against ZEAMX in % (crop plant compatibility) ([24]; 20 g/ha, ZEAMX, effect in comparison to untreated controls): 0%
- Post-emergence action against ZEAMX in % ([24]; crop plant compatibility, 80 g/ha, effect vs untreated controls): 10%
- Post-emergence action against ORYSA in % ([7]; 20 g/ha, effect vs untreated controls): 0%
- Post-emergence action against ORYSA in % [7, 28]: 0%
- Pre-emergence action against ALOMY ([8]; 80 g/ha): 90%
- Pre-emergence action against ALOMY ([8]; 320 g/ha): 100%
- Pre-emergence action against AMARE in % ([10]; 80 g/ha): 100%
- Pre-emergence action against AMARE in % ([10]; 320 g/ha): 100%
- Post-emergence action against ALOMY in % ([12]; 80 g/ha): 90%
- Post-emergence action against AMARE in % [25]: 80%
- Post-emergence action against VERPE in % ([13]; dosage 80 g/ha): 90%
- Pre-emergence action against SETVI in % ([26]; dosage 80 g/ha): 90%
- Pre-emergence action against SETVI in % ([26]; dosage 320 g/ha): 100%
- Pre-emergence action against POLCO in % [15]: 90%
- Pre-emergence action against ZEAMX in % [16]: 20%
- Pre-emergence action against ORYSA in % [17]: 10%
- Pre-emergence action against VERPE in % [18]: 90%
- Pre-emergence action against MATIN in % [27]: 90%
- Post-emergence action against DIGSA in % ([21]; 80 g/ha): 90%
- Pre-emergence action against VIOTR in % ([22]; 320 g/ha, Viola tricolor): 90%
